Measured values published in patent US8748376B2, “Stable formulations of peptides” (Novo Nordisk A/S, priority 2004, dated 2014).

Test: Thioflavine T stress test of heat treated liraglutide preparations
Assay type: physicochemical
Protocol: The physical stability of the liraglutide preparations was evaluated by the use of a florescence method; the Thioflavine T-test where the histological thiazole dye Thioflavine T (ThT) was used as an indicator of fibril formation. By the use of Thioflavine T-test it was possible to determine the presence of fibrils in the different formulations. The method was based on the fluorescent characteristics of ThT.
ThT was used in a stress test applying the different formulations in microtiter plates with ThT at 35° C. and shaken with 350 rpm until the formulations were fibrillated. Graphs of the fluorescence intensity (FI) as a function of time (sec) were obtained.

physical stability by increasing the temperature of heat treatment (from 22 to 50-80° C. at pH 9-10): significantly improved | physical stability as temperature of heat treatment was increased (heat treatment 22 to 80° C.): significantly improved
SMILES: CCCCCCCCCCCCCCCC(=O)N[C@@H](CCC(=O)NCCCC[C@H](NC(=O)[C@H](C)NC(=O)[C@H](C)NC(=O)[C@H](CCC(N)=O)NC(=O)CNC(=O)[C@H](CCC(=O)O)NC(=O)[C@H](CC(C)C)NC(=O)[C@H](Cc1ccc(O)cc1)NC(=O)[C@H](CO)NC(=O)[C@H](CO)NC(=O)[C@@H](NC(=O)[C@H](CC(=O)O)NC(=O)[C@H](CO)NC(=O)[C@@H](NC(=O)[C@H](Cc1ccccc1)NC(=O)[C@@H](NC(=O)CNC(=O)[C@H](CCC(=O)O)NC(=O)[C@H](C)NC(=O)[C@@H](N)Cc1cnc[nH]1)[C@@H](C)O)[C@@H](C)O)C(C)C)C(=O)N[C@@H](CCC(=O)O)C(=O)N[C@@H](Cc1ccccc1)C(=O)N[C@H](C(=O)N[C@@H](C)C(=O)N[C@@H](Cc1c[nH]c2ccccc12)C(=O)N[C@@H](CC(C)C)C(=O)N[C@H](C(=O)N[C@@H](CCCNC(=N)N)C(=O)NCC(=O)N[C@@H](CCCNC(=N)N)C(=O)NCC(=O)O)C(C)C)[C@@H](C)CC)C(=O)O [liraglutide, Arg^34, Lys^26(N^ε-(γ-Glu(N^α-hexadecanoyl)))-GLP-1(7-37)]
physical stability, time of heat treatment (60 and 80° C., 120 minutes in comparison to 1 minute of heat treatment): improve the physical stability significantly | physical stability, time of heat treatment (pH 9-10, all temperatures, 15 to 20 minutes compared to 1 minute of heat treatment): improve the physical stability significantly
